According to ChEMBL document CHEMBL2040737, “Synthesis and biological evaluation of novel 2-(2-arylmethylene)hydrazinyl-4-aminoquinazoline derivatives as potent antitumor agents” (Eur J Med Chem, 2012):

Tests used:
NCI-H460 = assay: Cytotoxicity against human H460 cells after 72 hrs by MTT assay; assay type: functional, cell-based; details: NCI-H460, 72 h
HT-29 [1] = assay: Cytotoxicity against human HT-29 cells after 72 hrs by MTT assay; assay type: functional, cell-based; details: HT-29, 72 h
HepG2 [2] = assay: Cytotoxicity against human HepG2 cells after 72 hrs by MTT assay; assay type: functional, cell-based; details: HepG2, 72 h
SGC-7901 = assay: Cytotoxicity against human SGC7901 cells after 72 hrs by MTT assay; assay type: functional, cell-based; details: SGC-7901, 72 h
HT-29 [3] = assay: Ratio of iressa IC50 to compound IC50 for human HT-29 cells; assay type: functional
HepG2 [4] = assay: Ratio of iressa IC50 to compound IC50 for human HepG2 cells; assay type: functional

Which results are given for `CN(C)CCNc1nc(N/N=C/c2ccc(Cl)cc2)nc2ccccc12`?
IC50 (NCI-H460): 3250 nM; IC50 (HT-29 [1]): 210 nM; IC50 (HepG2 [2]): 370 nM; IC50 (SGC-7901): 970 nM

`CN(C)CCNc1nc(N/N=C/c2ccc(F)cc2)nc2ccccc12` was tested. Which IC50 (NCI-H460) did it give?
Its IC50 is 5680 nM.

And the IC50 (HT-29 [1])?
The IC50 was 1530 nM.

And the IC50 (HepG2 [2])?
Its IC50 is 1820 nM.

What about the IC50 (SGC-7901) of the same compound?
The IC50 was 4100 nM.

How did the IC50 (NCI-H460) turn out when `CN(C)CCNc1nc(N/N=C/c2ccc(F)cc2Cl)nc2ccccc12` was run?
The IC50 was 1760 nM.

And the IC50 (HT-29 [1])?
The IC50 was 330 nM.

And the IC50 (HepG2 [2])?
Its IC50 is 680 nM.

What about the IC50 (SGC-7901) of the same compound?
The IC50 was 1680 nM.

`CN(C)CCCNc1nc(N/N=C/c2ccc(Cl)cc2)nc2ccccc12` was tested. Which IC50 (NCI-H460) did it give?
Its IC50 is 1490 nM.

And the IC50 (HT-29 [1])?
The IC50 was 270 nM.

And the IC50 (HepG2 [2])?
Its IC50 is 550 nM.

What about the IC50 (SGC-7901) of the same compound?
Its IC50 is 1730 nM.

`CN(C)CCCNc1nc(N/N=C/c2ccc(F)cc2)nc2ccccc12` was tested. Which IC50 (NCI-H460) did it give?
Its IC50 is 4090 nM.

What about the IC50 (HT-29 [1]) of the same compound?
The IC50 was 870 nM.

And the IC50 (HepG2 [2])?
Its IC50 is 880 nM.

And the IC50 (SGC-7901)?
Its IC50 is 2760 nM.

How did the IC50 (NCI-H460) turn out when `CN(C)CCCNc1nc(N/N=C/c2ccc(F)cc2Cl)nc2ccccc12` was run?
The IC50 was 1800 nM.

What about the IC50 (HT-29 [1]) of the same compound?
The IC50 was 1150 nM.

What about the IC50 (HepG2 [2]) of the same compound?
The IC50 was 670 nM.

What about the IC50 (SGC-7901) of the same compound?
The IC50 was 1660 nM.

What does the source list for `Clc1ccc(/C=N/Nc2nc(NCCCN3CCOCC3)c3ccccc3n2)cc1`?
IC50 (NCI-H460): 4000 nM; IC50 (HT-29 [1]): 610 nM; IC50 (HepG2 [2]): 1740 nM; IC50 (SGC-7901): 3550 nM

What does the source list for `Fc1ccc(/C=N/Nc2nc(NCCCN3CCOCC3)c3ccccc3n2)cc1`?
IC50 (NCI-H460): 5870 nM; IC50 (HT-29 [1]): 2190 nM; IC50 (HepG2 [2]): 4020 nM; IC50 (SGC-7901): 6770 nM

With `Oc1ccccc1/C=N/Nc1nc(NCCCN2CCOCC2)c2ccccc2n1` as the compound, how does the IC50 (NCI-H460) read?
Its IC50 is 2950 nM.

And the IC50 (HT-29 [1])?
Its IC50 is 2080 nM.

What about the IC50 (HepG2 [2]) of the same compound?
Its IC50 is 3830 nM.

What about the IC50 (SGC-7901) of the same compound?
The IC50 was 3210 nM.

What does the source list for `Oc1cccc(/C=N/Nc2nc(NCCCN3CCOCC3)c3ccccc3n2)c1`?
IC50 (NCI-H460): 4670 nM; IC50 (HT-29 [1]): 6320 nM; IC50 (HepG2 [2]): 6490 nM; IC50 (SGC-7901): 4900 nM

For `CN1CCC(Nc2nc(N/N=C/c3ccc(Cl)cc3)nc3ccccc23)CC1`, which IC50 (NCI-H460) is on record?
The IC50 was 210 nM.

What about the IC50 (HT-29 [1]) of the same compound?
The IC50 was 23 nM.

And the IC50 (HepG2 [2])?
The IC50 was 170 nM.

And the IC50 (SGC-7901)?
The IC50 was 1320 nM.

How did the IC50 (NCI-H460) turn out when `CN1CCC(Nc2nc(N/N=C/c3ccc(F)cc3)nc3ccccc23)CC1` was run?
Its IC50 is 2640 nM.

What about the IC50 (HT-29 [1]) of the same compound?
Its IC50 is 1410 nM.

And the IC50 (HepG2 [2])?
Its IC50 is 1950 nM.

And the IC50 (SGC-7901)?
Its IC50 is 1760 nM.

`CN1CCC(Nc2nc(N/N=C/c3ccc(F)cc3Cl)nc3ccccc23)CC1` was tested. Which IC50 (NCI-H460) did it give?
Its IC50 is 610 nM.

And the IC50 (HT-29 [1])?
The IC50 was 270 nM.

What about the IC50 (HepG2 [2]) of the same compound?
The IC50 was 1120 nM.

And the IC50 (SGC-7901)?
Its IC50 is 1630 nM.

How did the IC50 (NCI-H460) turn out when `COc1ccc(OC)c(/C=N/Nc2nc(NC3CCN(C)CC3)c3ccccc3n2)c1` was run?
Its IC50 is 4760 nM.

What about the IC50 (HT-29 [1]) of the same compound?
Its IC50 is 2830 nM.

And the IC50 (HepG2 [2])?
Its IC50 is 7170 nM.

And the IC50 (SGC-7901)?
Its IC50 is 4240 nM.

With `CN(C)CCNc1nc(N/N=C/c2nccn2Cc2ccccc2)nc2ccccc12` as the compound, how does the IC50 (NCI-H460) read?
The IC50 was 9650 nM.

What about the IC50 (HT-29 [1]) of the same compound?
The IC50 was 2620 nM.

What about the IC50 (HepG2 [2]) of the same compound?
Its IC50 is 9600 nM.

And the IC50 (SGC-7901)?
The IC50 was 4300 nM.

What does the source list for `Cc1ccc(Cn2ccnc2/C=N/Nc2nc(NCCN(C)C)c3ccccc3n2)cc1`?
IC50 (NCI-H460): 4200 nM; IC50 (HT-29 [1]): 1410 nM; IC50 (HepG2 [2]): 2980 nM; IC50 (SGC-7901): 2750 nM

For `CN(C)CCNc1nc(N/N=C/c2nccn2Cc2ccc(F)cc2)nc2ccccc12`, which IC50 (NCI-H460) is on record?
The IC50 was 1050 nM.

What about the IC50 (HT-29 [1]) of the same compound?
The IC50 was 930 nM.

And the IC50 (HepG2 [2])?
Its IC50 is 3060 nM.

What about the IC50 (SGC-7901) of the same compound?
The IC50 was 2420 nM.

Which IC50 (NCI-H460) does the source give for `CN(C)CCNc1nc(N/N=C/c2nccn2Cc2cccc(Cl)c2Cl)nc2ccccc12` here?
The IC50 was 870 nM.

What about the IC50 (HT-29 [1]) of the same compound?
The IC50 was 260 nM.

What about the IC50 (HepG2 [2]) of the same compound?
The IC50 was 670 nM.

And the IC50 (SGC-7901)?
Its IC50 is 1850 nM.

For `CN(C)CCCNc1nc(N/N=C/c2nccn2Cc2ccccc2)nc2ccccc12`, which IC50 (NCI-H460) is on record?
Its IC50 is 4670 nM.

And the IC50 (HT-29 [1])?
Its IC50 is 1980 nM.

What about the IC50 (HepG2 [2]) of the same compound?
Its IC50 is 4040 nM.

What about the IC50 (SGC-7901) of the same compound?
Its IC50 is 2130 nM.

Which results are given for `Cc1ccc(Cn2ccnc2/C=N/Nc2nc(NCCCN(C)C)c3ccccc3n2)cc1`?
IC50 (NCI-H460): 1690 nM; IC50 (HT-29 [1]): 2440 nM; IC50 (HepG2 [2]): 3680 nM; IC50 (SGC-7901): 2600 nM

How did the IC50 (NCI-H460) turn out when `CN(C)CCCNc1nc(N/N=C/c2nccn2Cc2ccc(F)cc2)nc2ccccc12` was run?
The IC50 was 640 nM.

And the IC50 (HT-29 [1])?
The IC50 was 630 nM.

And the IC50 (HepG2 [2])?
The IC50 was 2860 nM.

And the IC50 (SGC-7901)?
Its IC50 is 3510 nM.

For `CN(C)CCCNc1nc(N/N=C/c2nccn2Cc2cccc(Cl)c2Cl)nc2ccccc12`, which IC50 (NCI-H460) is on record?
The IC50 was 430 nM.

And the IC50 (HT-29 [1])?
The IC50 was 360 nM.

And the IC50 (HepG2 [2])?
The IC50 was 850 nM.

And the IC50 (SGC-7901)?
The IC50 was 1170 nM.

`C(=N\Nc1nc(NCCCN2CCOCC2)c2ccccc2n1)/c1nccn1Cc1ccccc1` was tested. Which IC50 (NCI-H460) did it give?
The IC50 was 4030 nM.

What about the IC50 (HT-29 [1]) of the same compound?
The IC50 was 2840 nM.

And the IC50 (HepG2 [2])?
Its IC50 is 4800 nM.

What about the IC50 (SGC-7901) of the same compound?
Its IC50 is 3960 nM.

Which results are given for `Cc1ccc(Cn2ccnc2/C=N/Nc2nc(NCCCN3CCOCC3)c3ccccc3n2)cc1`?
IC50 (NCI-H460): 3760 nM; IC50 (HT-29 [1]): 3160 nM; IC50 (HepG2 [2]): 3190 nM; IC50 (SGC-7901): 3020 nM

Which results are given for `Fc1ccc(Cn2ccnc2/C=N/Nc2nc(NCCCN3CCOCC3)c3ccccc3n2)cc1`?
IC50 (NCI-H460): 2470 nM; IC50 (HT-29 [1]): 930 nM; IC50 (HepG2 [2]): 2210 nM; IC50 (SGC-7901): 1920 nM

`Clc1cccc(Cn2ccnc2/C=N/Nc2nc(NCCCN3CCOCC3)c3ccccc3n2)c1Cl` was tested. Which IC50 (NCI-H460) did it give?
Its IC50 is 910 nM.

And the IC50 (HT-29 [1])?
Its IC50 is 720 nM.

And the IC50 (HepG2 [2])?
The IC50 was 1250 nM.

What about the IC50 (SGC-7901) of the same compound?
The IC50 was 2660 nM.

Which results are given for `CN1CCC(Nc2nc(N/N=C/c3nccn3Cc3ccccc3)nc3ccccc23)CC1`?
IC50 (NCI-H460): 1030 nM; IC50 (HT-29 [1]): 750 nM; IC50 (HepG2 [2]): 1420 nM; IC50 (SGC-7901): 1380 nM

What does the source list for `Cc1ccc(Cn2ccnc2/C=N/Nc2nc(NC3CCN(C)CC3)c3ccccc3n2)cc1`?
IC50 (NCI-H460): 770 nM; IC50 (HT-29 [1]): 200 nM; IC50 (HepG2 [2]): 1230 nM; IC50 (SGC-7901): 960 nM

Which IC50 (NCI-H460) does the source give for `CN1CCC(Nc2nc(N/N=C/c3nccn3Cc3ccc(F)cc3)nc3ccccc23)CC1` here?
Its IC50 is 210 nM.

What about the IC50 (HT-29 [1]) of the same compound?
The IC50 was 650 nM.

What about the IC50 (HepG2 [2]) of the same compound?
The IC50 was 980 nM.

And the IC50 (SGC-7901)?
Its IC50 is 780 nM.

How did the IC50 (NCI-H460) turn out when `CN1CCC(Nc2nc(N/N=C/c3nccn3Cc3cccc(Cl)c3Cl)nc3ccccc23)CC1` was run?
The IC50 was 31 nM.

And the IC50 (HT-29 [1])?
The IC50 was 15 nM.

What about the IC50 (HepG2 [2]) of the same compound?
The IC50 was 530 nM.

What about the IC50 (SGC-7901) of the same compound?
The IC50 was 580 nM.

And the Ratio IC50 (HT-29 [3])?
The Ratio IC50 was 224.

What about the Ratio IC50 (HepG2 [4]) of the same compound?
Its Ratio IC50 is 12.

How did the IC50 (NCI-H460) turn out when `Cc1ccc(-c2cc(NCCN(C)C)c3ccccc3n2)cc1` was run?
Its IC50 is 3520 nM.

And the IC50 (HT-29 [1])?
Its IC50 is 1350 nM.

And the IC50 (HepG2 [2])?
Its IC50 is 2060 nM.

And the IC50 (SGC-7901)?
The IC50 was 4920 nM.
